Earlier results as cited in patent US20250319022A1, “CONCENTRATED SOLUTIONS COMPRISING SODIUM 5,10-METHYLENE-(6R)-TETRAHYDROFOLATE” (Merck Patent GMBH, priority 2022, published 2025).

Compound: Nc1nc2c(c(=O)[nH]1)N1CN(c3ccc(C(=O)N[C@@H](CCC(=O)O)C(=O)O)cc3)C[C@H]1CN2 [5,10-methylene-(6R,S)-tetrahydrofolic acid]
- purity after 7 hours (7 hours after dissolution): 84%
- purity after 24 hours compared to the starting purity (% normalized purity) (24 hours following dissolution in water): 44.9%
- loss of purity per hour (degradation rate) (reconstituted lyophilizate, linear regression of stability profile): 2.3 % purity per hour
